# Measured values: US6979686B1, “Substituted pyrazoles as p38 kinase inhibitors” (Pharmacia Corporation, priority 2001, dated 2005)
# Counter-ions that a name gives are not always drawn. Like-named read-outs stand apart in the source and are kept apart here.
# Molecular target: T1, human p38 kinase alpha (Homo sapiens, UniProt Q16539)
# T1 construct: GST (N, cleaved yes); made in house; host or cells: E. coli DH10B
# Test: p38 kinase in vitro assay, phosphorylation of biotinylated PHAS-I with 32P-ATP
# Format: biochemical
# Protocol: The coding region of the human p38a cDNA was obtained by PCR-amplification from RNA isolated from the human monocyte cell line THP.1. […] Random primer, dNTP's and Superscript™ reagents were all purchased from Life-Technologies, Gaithersburg, Mass. The reaction was incubated at 42° C. for 1 hour. Amplification of p38 cDNA was performed by aliquoting 5 μl of the reverse transcriptase reaction into a 100 μl PCR reaction containing the following: 80 μl dH2O, 2 μl 50 mM DNTP's, 1 μl each of forward and reverse primers (50 pmol/μl), 10 μl of 10×buffer and 1 μl Expand™ polymerase (Boehringer Mannheim). The PCR primers incorporated BamHI sites onto the 5′ and 3′ end of the amplified fragment, and were purchased from Genosys. […] The PCR amplification was carried out in a DNA Thermal Cycler (Perkin Elmer) by repeating 30 cycles of 94° C. for 1 minute, 60° C. for 1 minute and 68° C. for 2 minutes. After amplification, excess primers and unincorporated dNTP's were removed from the amplified fragment with a Wizard™ PCR prep (Promega) and digested with BamHI (New England Biolabs). The BamHI digested fragment was ligated into BamHI digested PGEX 2T plasmid DNA (PharmaciaBiotech) using T-4 DNA ligase (New England Biolabs) as described by T. Maniatis, Molecular Cloning: A Laboratory Manual, 2nd ed. […] The ligation reaction was transformed into chemically competent E. coli DH10B cells purchased from Life-Technologies following the manufacturer's instructions. Plasmid DNA was isolated from the resulting bacterial colonies using a Promega Wizard™ miniprep kit.
# Expression of Human p38a:
# Overnight cultures were grown in-Luria Broth (LB) containing […] ampicillin. The next day, 500 ml of fresh LB was inoculated with 10 ml of overnight culture, and grown in a 2 liter flask at 37° C. with constant shaking until the culture reached an absorbance of 0.8 at 600 nm. Expression of the fusion protein was induced by addition of isopropyl b-D-thiogalactosidse (IPTG) to a final concentration of 0.05 mM. The cultures were shaken for three hours at room temperature, and the cells were harvested by centrifugation. The cell pellets were stored frozen until protein purification.
# Purification of p38 Kinase-α:
# All chemicals were from Sigma Chemical Co. unless noted. Twenty grams of E. coli cell pellet collected from five 1 L shake flask fermentations was resuspended in a volume of PBS (140 mM NaCl, 2.7 mM KCl, 10 mM Na2HPO4, 1.8 mM KH2PO4, pH 7.3) up to 200 ml. The cell suspension was adjusted to 5 mM DTT with 2 M DTT and then split equally into five 50 ml Falcon conical tubes. The cells were sonnicated (Ultrasonics model W375) with a 1 cm probe for 3×1 minutes (pulsed) on ice. Lysed cell material was removed by centrifugation (12,000×g, 15 minutes) and the clarified supernatant applied to glutathione-sepharose resin (Pharmacia).
# Glutathione-sepharose Affinity Chromatography:
# The resin was collected by centrifugation (600×g, 5 min) and washed with 2×150 ml PBS/1% Triton X-100, followed by 4×40 ml PBS. To cleave the p38 kinase from the GST-p38 fusion protein, the glutathione-sepharose resin was resuspended in 6 ml PBS containing 250 units thrombin protease (Pharmacia, specific activity>7500 units/mg) and mixed gently for 4 hours at room temperature. The glutathione-sepharose resin was removed by centrifugation (600×g, 5 min) and washed 2×6 ml with PBS. The PBS wash fractions and digest supernatant containing p38 kinase protein were pooled and adjusted to 0.3 mM PMSF.
# Mono O Anion Exchange Chromatography:
# The thrombin-cleaved p38 kinase was further purified by FPLC-anion exchange chromatography.
# [1] = in vitro P38-alpha kinase, read-out: P38 alpha kinase IC50
# [2] = in vitro P38-alpha kinase inhibition, read-out: P38 alpha kinase IC50
# T1 sequence (Q16539 whole entry): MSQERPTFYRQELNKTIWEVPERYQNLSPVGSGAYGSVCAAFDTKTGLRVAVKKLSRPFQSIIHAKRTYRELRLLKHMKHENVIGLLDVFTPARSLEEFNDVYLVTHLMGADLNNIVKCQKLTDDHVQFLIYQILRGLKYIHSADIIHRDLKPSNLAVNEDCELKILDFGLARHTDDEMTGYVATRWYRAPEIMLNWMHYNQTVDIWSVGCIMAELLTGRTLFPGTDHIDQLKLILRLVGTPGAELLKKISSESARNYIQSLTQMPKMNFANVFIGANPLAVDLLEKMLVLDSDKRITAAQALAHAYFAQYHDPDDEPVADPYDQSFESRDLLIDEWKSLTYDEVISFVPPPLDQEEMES
structure (smiles),measurement,setting,value
Cc1ccccc1S(=O)(=O)NCCCc1[nH]nc(-c2ccc(F)cc2)c1-c1ccncc1 [Example B-1274],IC50,[1],< 100 nM
O=C(Nc1ccc(F)cc1)NC(Cc1ccccc1)c1[nH]nc(-c2ccc(F)cc2)c1-c1ccncc1 (stereo not shown) [Example B-0728],IC50,[2],20000 nM
O=S(=O)(Cc1ccccc1)N1CCC(c2[nH]nc(-c3ccc(F)cc3)c2-c2ccncc2)CC1 [Example B-1374],IC50,[1],< 100 nM
O=C(NCCCc1[nH]nc(-c2ccc(F)cc2)c1-c1ccncc1)Nc1ccc(F)cc1 [Example B-1211],P38 alpha kinase % inhib @ conc.,@ 1.0 uM,88.0% @
CC(=O)OC(C)C(=O)NCCc1[nH]nc(-c2ccc(F)cc2)c1-c1ccncc1 (stereo not shown) [Example B-0993],P38 alpha kinase % inhib @ conc. (uM),@ 1.0 uM,57.0% @
"Clc1ccc(-c2[nH]nc(NC3CCNCC3)c2-c2ccncc2)cc1 [Example A-332, N-[5-(4-chlorophenyl)-4-(4-pyridinyl)-3H-pyrazol-3-yl]-4-piperidineamine, trihydrochloride, monohydrate]",IC50,"Table 8, 1% DMSO, read-out: p38α Kinase Assay IC50",40 nM
O=C(c1cc(F)cc(C(F)(F)F)c1)N1CCC(c2[nH]nc(-c3ccc(F)cc3)c2-c2ccncc2)CC1 [Example B-1409],IC50,[1],< 100 nM
CC(NS(=O)(=O)c1cccc2nonc12)c1[nH]nc(-c2ccc(F)cc2)c1-c1ccncc1 (stereo not shown) [Example B-0654],IC50,[2],5970 nM
O=C(NCCc1[nH]nc(-c2ccc(F)cc2)c1-c1ccncc1)c1ccno1 [Example B-0992],P38 alpha kinase % inhib @ conc. (uM),@ 1.0 uM,77.0% @
O=S(=O)(NCCCc1[nH]nc(-c2ccc(F)cc2)c1-c1ccncc1)C(F)(F)F [Example B-1196],P38 alpha kinase % inhib @ conc. (uM),@ 1.0 uM,74.0% @
Cc1[nH]nc(-c2cccc(C(F)(F)F)c2)c1-c1ccncc1 [Example A-42],IC50,"activated human p38 kinase alpha, PHAS-I substrate, 50 μM unlabeled ATP, read-out: p38 kinase IC50",300 nM
O=C(NCCCc1[nH]nc(-c2ccc(F)cc2)c1-c1ccncc1)NC1CCN(Cc2ccccc2)CC1 [Example B-1320],IC50,[1],47 nM
O=S(=O)(NCCc1[nH]nc(-c2ccc(F)cc2)c1-c1ccncc1)c1cc(Cl)cc(Cl)c1 [Example B-1092],IC50,[2],270 nM
CC(=O)OCC(=O)NC(Cc1ccccc1)c1[nH]nc(-c2ccc(F)cc2)c1-c1ccncc1 (stereo not shown) [Example B-0797],IC50,[2],1040 nM
Cc1noc(C)c1C(=O)NC(C)c1[nH]nc(-c2ccc(F)cc2)c1-c1ccncc1 (stereo not shown) [Example B-0706],IC50,[2],440 nM
Cc1c(-c2ccncc2)c(-c2ccc(F)cc2)nn1CC(=O)NCC1CC1 [Example B-2276],IC50,[1],11500 nM
C=CCNC(=O)NC(Cc1ccccc1)c1[nH]nc(-c2ccc(F)cc2)c1-c1ccncc1 (stereo not shown) [Example B-0779],IC50,[2],500 nM
Cc1c(-c2ccncc2)c(-c2ccc(F)cc2)nn1CC(=O)NC1CCSc2ccccc21 (stereo not shown) [Example B-2348],P38 alpha kinase % inhib @ conc.,@ 10.0 uM,76.0% @
O=C(NCCc1[nH]nc(-c2ccc(F)cc2)c1-c1ccncc1)c1ccncc1 [Example B-1006],P38 alpha kinase % inhib @ conc. (uM),@ 1.0 uM,69.0% @
Cc1c(-c2ccncc2)c(-c2ccc(F)cc2)nn1CC(=O)Nc1ccccc1C(=O)NC(C)c1ccccc1 (stereo not shown) [Example B-2456],"P38 alpha kinase IC50, uM or % inhib @ conc. (uM): % inhib",@ 10.0 uM,86.0% @
O=C(c1cc(C(F)(F)F)ccc1F)N1CCC(c2[nH]nc(-c3ccc(F)cc3)c2-c2ccncc2)CC1 [Example B-1405],IC50,[1],280 nM
Cc1noc(C)c1C(=O)NCCCc1[nH]nc(-c2ccc(F)cc2)c1-c1ccncc1 [Example B-1358],IC50,[1],160 nM
O=C(NCCc1[nH]nc(-c2ccc(F)cc2)c1-c1ccncc1)c1cccnc1 [Example B-1005],P38 alpha kinase % inhib @ conc. (uM),@ 1.0 uM,58.0% @
CC(NC(=O)c1ccncc1)c1[nH]nc(-c2ccc(F)cc2)c1-c1ccncc1 (stereo not shown) [Example B-0555],IC50,[2],1870 nM
CC(NC(=O)c1cc(F)c(F)cc1F)c1[nH]nc(-c2ccc(F)cc2)c1-c1ccncc1 (stereo not shown) [Example B-0698],IC50,[2],2330 nM
Cc1c(Cl)cccc1S(=O)(=O)NC(C)c1[nH]nc(-c2ccc(F)cc2)c1-c1ccncc1 (stereo not shown) [Example B-0624],IC50,[2],85 nM
Cc1c(-c2ccncc2)c(-c2ccc(F)cc2)nn1CC(=O)Nc1ccccc1SCCCc1ccccc1 [Example B-2460],"P38 alpha kinase IC50, uM or % inhib @ conc. (uM): % inhib",@ 10.0 uM,80.0% @
CNC(=O)NCCCc1[nH]nc(-c2ccc(F)cc2)c1-c1ccncc1 [Example B-1213],P38 alpha kinase % inhib @ conc.,@ 1.0 uM,84.0% @
